Measurements from patent US4200575A, “7[(2-Thiazolyl)-2-(oxoimino)acetamido]cephalosporin derivatives” (Takeda Chemical Industries, Ltd., priority 1977, dated 1980).

Tests used:
Assay in all cases: Minimal inhibitory concentration (M.I.C.), agar dilution method
Conditions in all cases: TSA, inoculum 10^7 /ml
K. pneumoniae GN 3835 = format: cell-based, Klebsiella pneumoniae
Description: (§1) (a) Determination of minimal inhibitory concentrations (Tables 1 to 8):
(§2) Procedure: agar dilution method

K. pneumoniae DT = format: cell-based, Klebsiella pneumoniae
Description: as §1, §2

P. morganii IFO 3168 = format: cell-based, Proteus morganii
Description: as §1, §2

P. mirabilis GN 4359 = format: cell-based, Proteus mirabilis
Description: as §1, §2

E. cloacae TN 1282 = format: cell-based, Enterobacter cloacae
Description: as §1, §2

P. rettgeri GN4733 = format: cell-based, Proteus rettgeri
Description: as §1, §2

P. rettgeri TN 338 = format: cell-based, Proteus rettgeri
Description: as §1, §2

S. marcescens IFO 12648 = format: cell-based, Serratia marcescens
Description: as §1, §2

S. marcescens TN 24 = format: cell-based, Serratia marcescens
Description: as §1, §2

S. aureus 209P = format: cell-based, Staphylococcus aureus
Description: as §1, §2

S. aureus 1840 = format: cell-based, Staphylococcus aureus
Description: as §1, §2

C. freundii GN 1706 = format: cell-based, Citrobacter freundii
Description: as §1, §2

C. freundii GN 99 = format: cell-based, Citrobacter freundii
Description: as §1, §2

P. vulgaris IFO 3988 = format: cell-based, Proteus vulgaris
Description: as §1, §2

P. vulgaris GN 4413 = format: cell-based, Proteus vulgaris
Description: as §1, §2

E. coli 0-111 = format: cell-based, Escherichia coli
Description: The minimal inhibitory concentrations (M.I.C.) of some representative cephalosporin derivatives of this invention as produced by the procedures described in those examples and the minimal inhibitory concentrations of cephalothin [sodium 7-(2-thienylacetamido)-3-acetoxymethyl-3-cephem-4-carboxylate], cephaloridine [7-(2-thienylacetamido)-3-(1-pyridyl)methyl-3-cephem-4-carboxylic acid betaine] and cefazolin [sodium 7-(1H-tetrazol-1-yl)acetamido-3-(2-methyl-1,3,4-thiadiazol-5-yl)thiomethyl-3-cephem-4-carboxylate], which are among the clinically established and commercially available cephalosporins (as described, for example, in the New England Journal of Medicine 294, 24, 1976 and Journal of Pharmaceutical Science 64, 1899, 1975), both against various bacteria, as well as the therapeutic effects of some respresentative cephalosporin derivatives of this invention and of cephaloridine in infected mice, are shown in tables.
as §1, §2

E. coli NIHJ JC-2 = format: cell-based, Escherichia coli
Description: as §1, §2

E. coli T-7 = format: cell-based, Escherichia coli
Description: as §1, §2

Compound	minimal inhibitory concentration (M.I.C.) (K. pneumoniae GN 3835)	minimal inhibitory concentration (M.I.C.) (K. pneumoniae DT)	minimal inhibitory concentration (M.I.C.) (P. morganii IFO 3168)	minimal inhibitory concentration (M.I.C.) (P. mirabilis GN 4359)	minimal inhibitory concentration (M.I.C.) (E. cloacae TN 1282)	minimal inhibitory concentration (M.I.C.) (P. rettgeri GN4733)	minimal inhibitory concentration (M.I.C.) (P. rettgeri TN 338)	minimal inhibitory concentration (M.I.C.) (S. marcescens IFO 12648)	minimal inhibitory concentration (M.I.C.) (S. marcescens TN 24)	minimal inhibitory concentration (M.I.C.) (S. aureus 209P)	minimal inhibitory concentration (M.I.C.) (S. aureus 1840)	minimal inhibitory concentration (M.I.C.) (C. freundii GN 1706)	minimal inhibitory concentration (M.I.C.) (C. freundii GN 99)	minimal inhibitory concentration (M.I.C.) (P. vulgaris IFO 3988)	minimal inhibitory concentration (M.I.C.) (P. vulgaris GN 4413)	minimal inhibitory concentration (M.I.C.) (E. coli 0-111)	minimal inhibitory concentration (M.I.C.) (E. coli NIHJ JC-2)	minimal inhibitory concentration (M.I.C.) (E. coli T-7)
CCCNC(=O)O/N=C(\C(=O)NC1C(=O)N2C(C(=O)O)=C(CSc3nnnn3C)CSC12)c1csc(=N)[nH]1 (stereo not drawn) [Example II - 14]	0.39	0.1	0.2	0.39	3.13	0.2	≤ 0.012	3.13	3.13	1.56	3.13	0.39	0.2	0.1	12.5	0.024	0.39	3.13
CC(=O)OCC1=C(C(=O)O)N2C(=O)C(NC(=O)/C(=N\OC(=O)NC(C)C)c3csc(=N)[nH]3)C2SC1 (stereo not drawn) [Example II - 16]	0.78	0.1	0.78	0.1	6.25	0.2	≤ 0.012	6.25	25	1.56	3.13	0.78	0.39	0.39	25	0.024	0.39	3.13
CNC(=O)O/N=C(\C(=O)NC1C(=O)N2C(C(=O)O)=C(CSc3nnc(C)o3)CSC12)c1csc(=N)[nH]1 (stereo not drawn) [Example IV - 10]	0.78	≤ 0.2	0.39	0.39	3.13	0.78	≤ 0.2	6.25	6.25	1.56	3.13	0.78	0.39	0.39	25	≤ 0.2	0.39	6.25
CCCNC(=O)O/N=C(\C(=O)NC1C(=O)N2C(C(=O)O)=C(C)CSC12)c1csc(=N)[nH]1 (stereo not drawn) [Example II - 15]	6.25	3.13	50	3.13	> 100	0.39	0.1	> 100	> 100	12.5	12.5	12.5	12.5	12.5	50	3.13	6.25	25
CCCCNC(=O)O/N=C(\C(=O)NC1C(=O)N2C(C(=O)O)=C(CSc3nnnn3C)CSC12)c1csc(=N)[nH]1 (stereo not drawn) [Example II - 22]	0.78	0.1	0.78	0.39	12.5	0.1	≤ 0.012	6.25	5.13	0.78	3.13	0.78	0.2	0.1	12.5	0.024	0.39	6.25
CCNC(=O)O/N=C(\C(=O)NC1C(=O)N2C(C(=O)O)=C(CSc3nnc(C)s3)CSC12)c1csc(=N)[nH]1 (stereo not drawn) [Example II - 10]	0.78	0.2	0.39	0.78	3.13	0.78	≤ 0.05	3.13	1.56	0.78	1.56	0.78	0.39	0.39	12.5	0.2	0.78	3.13
CCCNC(=O)O/N=C(\C(=O)NC1C(=O)N2C(C(=O)O)=C(COC(N)=O)CSC12)c1csc(=N)[nH]1 (stereo not drawn) [Example II - 13]	0.2	0.05	3.13	0.1	6.25	0.1	≤ 0.012	6.25	25	1.56	3.13	0.78	0.1	0.39	50	0.05	0.2	1.56
CNC(=O)O/N=C(\C(=O)NC1C(=O)N2C(C(=O)[O-])=C(C[n+]3ccc(C(N)=O)cc3)CSC12)c1csc(=N)[nH]1 (stereo not drawn) [Example IV - 2, 7-[2-(2-imino-4-thiazolin-4-yl)-2-methylcarbamoyloximinoacetamido]-3-(4-carbamoylpyridiniummethyl)-3-cephem-4-carboxylate (syn-isomer)]	1.56	0.39	0.78	1.56	3.13	0.78	0.1	3.13	3.13	3.13	3.13	1.56	0.78	0.78	12.5	0.2	0.78	6.25
